Assay results: ChEMBL document CHEMBL6153094, “Rationally designed highly amphipathic antimicrobial peptides demonstrating superior bacterial selectivity relative to the corresponding α-helix peptide” (Eur J Med Chem, 2025)
Calls of active or inactive are those of the source. No cut-off for these calls is given here.

Experiments:
Bacillus subtilis = assay: Antimicrobial activity against Bacillus subtilis ATCC 23857 assessed as inhibition of visible bacterial growth incubated for 18 hrs by broth microdilution method; type: functional
Staphylococcus aureus [1] = assay: Antimicrobial activity against methicillin-drug resistant Staphylococcus aureus clinical isolate 54 assessed as concentration required to eliminate 90% bacteria incubated for 18 hrs by broth-microdilution method; type: functional
Escherichia coli = assay: Antimicrobial activity against multi-drug resistant Escherichia coli clinical isolate 780 assessed as concentration required to eliminate 90% bacteria incubated for 18 hrs by broth-microdilution method; type: functional
Pseudomonas aeruginosa [2] = assay: Antimicrobial activity against multi-drug resistant Pseudomonas aeruginosa clinical isolate 86 assessed as concentration required to eliminate 90% bacteria incubated for 18 hrs by broth-microdilution method; type: functional
Pseudomonas aeruginosa [3] = assay: Antimicrobial activity against multi-drug resistant Pseudomonas aeruginosa clinical isolate 119 assessed as concentration required to eliminate 90% bacteria incubated for 18 hrs by broth-microdilution method; type: functional
[4] = Hemolytic activity in mouse red blood cells assessed as hemolysis at 256 uM incubated for 1 hrs by absorbance based assay relative to control; type: toxicity, cell-based, Erythrocyte; conditions: read-out: Activity
Staphylococcus aureus [5] = assay: Antibacterial activity against Staphylococcus aureus ATCC 25923 assessed as inhibition of bacterial growth at 2 times of MIC incubated for 18 hrs in presence of <2 microg/ml of chymotrypsin by absorbance based assay; type: functional, organism-based
Pseudomonas aeruginosa [6] = assay: Antibacterial activity against Pseudomonas aeruginosa ATCC 27853 assessed as fold change in MIC incubated for 18 hrs in presence of NaCl by Mueller-Hinton broth based assay; type: functional
Pseudomonas aeruginosa [7] = assay: Antibacterial activity against Pseudomonas aeruginosa ATCC 27853 incubated for 18 hrs in presence of ZnCl2 by Mueller-Hinton broth based assay; type: functional, organism-based
Pseudomonas aeruginosa [8] = assay: Antibacterial activity against Pseudomonas aeruginosa ATCC 27853 incubated for 18 hrs in presence of FeCl3 by Mueller-Hinton broth based assay; type: functional, organism-based
Staphylococcus aureus [9] = assay: Antibacterial activity against Staphylococcus aureus ATCC 25923 incubated for 18 hrs in presence of ZnCl2 by Mueller-Hinton broth based assay; type: functional, organism-based
Staphylococcus aureus [10] = assay: Antibacterial activity against Staphylococcus aureus ATCC 25923 incubated for 18 hrs in presence of FeCl3 by Mueller-Hinton broth based assay; type: functional, organism-based
Pseudomonas aeruginosa [11] = assay: Antibacterial activity against Pseudomonas aeruginosa ATCC 27853 assessed as fold change in MIC incubated for 18 hrs in presence of 5% serum by broth microdilution method; type: functional
Staphylococcus aureus [12] = assay: Antibacterial activity against Staphylococcus aureus ATCC 25923 assessed as fold change in MIC incubated for 18 hrs in presence of 2.5% serum by broth microdilution method; type: functional
Pseudomonas aeruginosa [13] = assay: Antibiofilm activity in Pseudomonas aeruginosa ATCC 27853 assessed as inhibition of biofilm formation at 1 times of MIC incubated for 24 hrs by crystal violet staining based analysis relative to control; type: functional
Staphylococcus aureus [14] = assay: Antibiofilm activity in Staphylococcus aureus ATCC 25923 assessed as inhibition of biofilm formation at 2 times of MIC incubated for 24 hrs by crystal violet staining based analysis relative to control; type: functional
Staphylococcus aureus [15] = assay: Antimicrobial activity against gentamicin-resistant Staphylococcus aureus ATCC 25923 assessed as inhibition of visible bacterial growth incubated for 18 hrs by broth-dilution method; type: functional
Staphylococcus aureus [16] = assay: Synergistic antimicrobial activity against gentamicin-resistant Staphylococcus aureus ATCC 25923 assessed as fractional inhibitory concentration index incubated for 18 hrs in presence of gentamicin by checkerboard microdilution method; type: functional
Staphylococcus aureus [17] = assay: Bactericidal activity against Staphylococcus aureus ATCC 25923 assessed as bacterial killing at 1 to 4 times of MIC by time-kill kinetics assay; type: functional, organism-based; conditions: time <= 360.0 min
Pseudomonas aeruginosa [18] = assay: Bactericidal activity against Pseudomonas aeruginosa ATCC 27853 assessed as bacterial eradication at 2 times of MIC measured within 30 mins by time-kill kinetics assay; type: functional, organism-based
Cell membrane [19] = assay: Disruption of outer membrane integrity in Pseudomonas aeruginosa ATCC 27853 assessed as increase in fluorescence intensity at 1 times of MIC measured for 12 mins by NPN uptake assay; type: subcellular
Cell membrane [20] = assay: Disruption of outer membrane integrity in Pseudomonas aeruginosa ATCC 27853 assessed as increase in fluorescence intensity at 4 times of MIC measured for 12 mins by NPN uptake assay; type: subcellular
Cell membrane [21] = assay: Induction of inner membrane permeabilization in Escherichia coli ML-35 ATCC 43837 assessed as increase in […] measured for 135 mins by ONPG based analysis; type: subcellular
DNA = assay: Binding affinity to Pseudomonas aeruginosa ATCC 27853 DNA at 8 times of MIC measured after 30 mins by agarose gel electrophoresis; type: nucleic-acid assay
Staphylococcus aureus [22] = assay: Induction of morphological changes in Staphylococcus aureus ATCC 25923 assessed as content leakage at 2 times of MIC incubated for 30 to 120 mins by SEM analysis; type: functional, organism-based; conditions: time 30-120 min
Staphylococcus aureus [23] = assay: Induction of morphological changes in Staphylococcus aureus ATCC 25923 assessed as cellular fragmentation at 2 times of MIC incubated for 30 to 120 mins by SEM analysis; type: functional, organism-based; conditions: time 30-120 min
[24] = Toxicity in male Balb/c mouse assessed as effect on survival at 63.5 mg/kg, ip measured after 7 days; type: organism-based; conditions: in vivo, 168 h, time 7 day
[25] = Toxicity in male Balb/c mouse assessed as mortality at 100.8 mg/kg, ip measured after 7 days relative to control; type: organism-based; conditions: in vivo, time 7 day
[26] = Toxicity in male Balb/c mouse assessed as animal death at 127 mg/kg, ip measured within 2 days; type: organism-based; conditions: in vivo, 48 h, time < 2 day
Klebsiella pneumoniae [27] = assay: Antibacterial activity against Klebsiella pneumoniae ATCC 700603 infected in male Balb/c mouse model of pneumonia assessed as decrease in decrease in TNF-alpha level in lung at 2.5 to 10 mg/kg, ip administered at 4 and 12 hrs post-infected and measured after 24 hrs by ELISA; type: functional, organism-based; conditions: dose 2.5-10 mg/kg, time 20.0 hrs
Klebsiella pneumoniae [28] = assay: Antibacterial activity against Klebsiella pneumoniae ATCC 700603 infected in male Balb/c mouse model of pneumonia assessed as increase in alveoli expansion in lung at 2.5 mg/kg, ip administered at 4 and 12 hrs post-infected and measured after 24 hrs by H and E staining based analysis; type: functional, organism-based; conditions: time 20.0 hrs
Staphylococcus aureus [29] = assay: Antibacterial activity against methicillin-resistant Staphylococcus aureus ATCC 33591 infected in male Balb/c mouse model of full thickness skin wound assessed as reduction in bacteria in skin wound at 1 mg/ml pre-infected with bacteria for 1 hrs followed by compound administration at 1,12 and 36 hrs post infection and measured after 10 days by photographic analysis; type: functional, organism-based; conditions: time 10.0 day
Staphylococcus aureus [30] = assay: Antibacterial activity against methicillin-resistant Staphylococcus aureus ATCC 33591 infected in male Balb/c mouse model of full thickness skin wound assessed as reduction in bacteria in skin wound at 1 mg/ml pre-infected with bacteria for 1 hrs followed by compound administration at 1,24,48 and 72 hrs post infection and measured after 10 days by photographic analysis; type: functional, organism-based; conditions: time 10.0 day
Staphylococcus aureus [31] = assay: Antibacterial activity against methicillin-resistant Staphylococcus aureus ATCC 33591 infected in male Balb/c mouse model of full thickness skin wound assessed as decrease in cell necrosis in skin at 1 mg/ml pre-infected with bacteria for 1 hrs followed by compound administration at 1,12 and 36 hrs post infection and measured after 10 days by H and E staining based analysis; type: functional, organism-based; conditions: time 10.0 day

H-RRWFRRWRRWFR-NH2
MIC (Bacillus subtilis): 1 µM
EC90 (Staphylococcus aureus [1]): 3420 nM
EC90 (Escherichia coli): 5080 nM
EC90 (Pseudomonas aeruginosa [2]): 574 nM
EC90 (Pseudomonas aeruginosa [3]): 566 nM
hemolysis at 1 h, 256 µM [4]: < 10%
Activity (Staphylococcus aureus [5]): Active
fold change (FC) (Pseudomonas aeruginosa [6]): 2
Activity (Pseudomonas aeruginosa [7]): Active
Activity (Pseudomonas aeruginosa [8]): Active
Activity (Staphylococcus aureus [9]): Active
Activity (Staphylococcus aureus [10]): Active
fold change (FC) (Pseudomonas aeruginosa [11]): 64
fold change (FC) (Staphylococcus aureus [12]): 32
inhibition (INH) (Pseudomonas aeruginosa [13]): >90%
inhibition (INH) (Staphylococcus aureus [14]): ~75%
MIC (Staphylococcus aureus [15]): 4 µM
fractional inhibitory concentration index (FICI) (Staphylococcus aureus [16]): 0.25
Activity (Staphylococcus aureus [17]): Time-dependent-effect
Activity (Pseudomonas aeruginosa [18]): Active
Activity (Cell membrane [19]): Active
Activity (Cell membrane [20]): Active
Activity (Cell membrane [21]): Active; Lower Concentration Of Compound Is Sufficient To Disrupt Inner Membrane
Activity (DNA): Active
Activity (Staphylococcus aureus [22]): Active
Activity (Staphylococcus aureus [23]): Active
Activity [24]: Non-toxic
mortality at 168 h [25]: 75%
Activity [26]: Toxic
Activity (Klebsiella pneumoniae [27]): Active
Activity (Klebsiella pneumoniae [28]): Active
Activity (Staphylococcus aureus [29]): Active; Obvious Facilitation Of Wound Healing Not Observed
Activity (Staphylococcus aureus [30]): Active; Obvious Facilitation Of Wound Healing Not Observed
Activity (Staphylococcus aureus [31]): Active
